Laboratory results reported in PMC3493614, “Structural and Binding Properties of Two Paralogous Fatty Acid Binding Proteins of Taenia solium Metacestode” (PLoS Neglected Tropical Diseases, 2012).
Values joined by “and” are separate entries in the source; they are usually repeats but may differ in a detail not shown here. Equal values may be shown once. Read-outs that look alike come from different tables or passages of the source.

Key:
[1] = molecular target: T1, recTsMFABP1 (Taenia solium, UniProt Q2XNL7); assay: Fluorometric ligand binding assay, recombinant TsMFABP1; conditions: for Kd / Vmax: one-site saturation model, 25°C; for Kd: ligand 0.1-10 µM; for Vmax: rate calculated from relative fluorescence (Vmax = Fmax), ligand 0.1-10 µM (FA analogs) or 0.1-10 mM (retinol); for Vmax/K d (binding rate constant): ratio of Vmax to K d
T1 sequence (Q2XNL7 entry or part of it): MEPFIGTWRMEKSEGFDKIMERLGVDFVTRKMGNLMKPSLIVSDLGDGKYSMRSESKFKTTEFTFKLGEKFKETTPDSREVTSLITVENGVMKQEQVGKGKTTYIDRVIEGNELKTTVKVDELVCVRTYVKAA
Procedure: (§1) All the proteins were delipidated for 2 h using Sephadex-LH (Sigma-Aldrich) prior to assay. The ligand binding profile of the native and rTsMFABPs were detected spectrofluorometrically using fluorescent FA analogs, including 11-([5-dimethylaminonaphthalene-1-sulfonyl]amino)undecannoic acid (DAUDA), dansyl-DL-α-aminocaprylic acid (DACA) (Molecular Probes), retinol (Sigma-Aldrich) and naturally fluorescent cis-parinaric acid (cPnA; Molecular Probes). Fluorescence emission spectra were recorded at 25°C with a total volume of 200 µl per well using black 96-well Microfluor 1 plates and an Infinite M-200 automated multi-detector (Tecan). The emission and excitation wavelengths for DAUDA, DACA, retinol and cPnA were 519, 519, 325 and 420 nm, and 345, 350, 350 and 315 nm, respectively. We included the TsM 120-kDa protein (10 µM) and recombinant 18 kDa (5 µM; a subunit of the TsM 120-kDa protein), which were proven not to have FA-binding activity, as negative controls during the measurements. All fluorescent stock compounds (10 mM dissolved in ethanol) were stored at −20°C in a dark room and were freshly diluted in ethanol prior to use. The equilibrium dissociation constants (K d) of the proteins bound to DAUDA, retinol and cPnA were estimated by adding increasing concentrations of respective ligands (0.1–10 µM for FA analogs and 0.1–10 mM for retinol) in a micro-quartz plate. Fluorescence intensities were normalized to the peak fluorescence intensity and corrected for background fluorescence of the ligand alone at each concentration. Corrected data were analyzed using the one-site saturation model and best fit algorithm contained in SigmaPlot9 software (y = V max X/K m+X, where y is relative fluorescence and X is concentrations of lipid ligand. V max can be substituted as Fmax [maximum fluorescence]). Competition assays were carried out by monitoring the change in fluorescence intensity at the peak transmission wavelength measured for either rTsMFABPs:DAUDA, rTsMFABPs:retinol or rTsMFABPs:cPnA complex in the presence of 10-fold excess oleic acid.
(§2) The partially purified native and recombinant proteins were subjected to delipidation. Each of the proteins (1 µM) was used in a hydrophobic ligand binding assay against the polarity-sensitive fluorophore-tagged FA analogs (0.1 µM) and retinol (5 mM). […] The TsMFABP2 also bound to DAUDA, although its specific activity was lower than that of the TsMFABP1. […] The retinol-binding activity of rTsMFABP2 appeared to be higher than that of rTsMFABP1. […] No binding activity was detected in the reactions with the TsM 120-kDa and recombinant 18-kDa proteins, which were used as negative controls.

[2] = molecular target: T2, recTsMFABP2 (Taenia solium, UniProt F2WVQ3); assay: Fluorometric ligand binding assay, recombinant TsMFABP2; conditions: for Vmax: rate calculated from relative fluorescence (Vmax = Fmax), ligand 0.1-10 µM (FA analogs) or 0.1-10 mM (retinol); for Vmax/K d (binding rate constant): ratio of Vmax to K d
T2 sequence (F2WVQ3 entry or part of it): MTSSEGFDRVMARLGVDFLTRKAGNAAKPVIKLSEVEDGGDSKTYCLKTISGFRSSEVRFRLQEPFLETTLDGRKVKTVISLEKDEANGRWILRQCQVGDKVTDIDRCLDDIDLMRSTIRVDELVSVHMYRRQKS
Procedure: as §1, §2

[3] = molecular target: T1, recTsMFABP1; assay: Fluorometric ligand binding assay, recombinant TsMFABP1; conditions: rTsMFABP1:DAUDA complex; oleic acid 5 µM (Figure 2B); protein 1 µM, DAUDA 0.1 µM
[4] = molecular target: T2, recTsMFABP2; assay: Fluorometric ligand binding assay, recombinant TsMFABP2; conditions: rTsMFABP2:retinol complex; oleic acid 5 µM (Figure 2D); protein 1 µM, retinol 5 mM
[5] = protein 1 µM, FA analog 0.1 µM, data not shown
[6] = one-site saturation model, ligand 0.1-10 µM, 25°C, read-out: K d
[7] = one-site saturation model, 25°C

Structure (SMILES) | Binding (fluorescence interaction mode) [1, 5] | Binding (fluorescence interaction mode) [2, 5] | Kd [1] | Vmax [1] | Vmax/K d (binding rate constant) [1] | Kd [2, 6] | Vmax [2, 7] | Vmax/K d (binding rate constant) [2] | Vmax/K d (binding rate constant) ([1]; listed as retinol) | Kd [2] | Vmax/K d (binding rate constant) ([2]; listed as retinol) | Competition with DAUDA binding [3] | Competition with retinol binding [4]
CCCCCCC(NS(=O)(=O)c1cccc2c(N(C)C)cccc12)C(=O)O (racemic) [DACA, dansyl-DL-α-aminocaprylic acid] | interaction modes comparable to those with DAUDA | interaction modes comparable to those with DAUDA | – | – | – | – | – | – | – | – | – | – | –
CN(C)c1cccc2c(S(=O)(=O)NCCCCCCCCCCC(=O)O)cccc12 [DAUDA, 11-([5-dimethylaminonaphthalene-1-sulfonyl]amino)undecannoic acid] | – | – | 2.15 ± 0.14 µM | 299.5±3.0 | 139.3 and 139.3±12.7 | 9.4 ± 0.89 µM | 364.2±3.5 | 38.7 and 38.7±3.94 | – | – | – | – | –
CC1=C(/C=C/C(C)=C/C=C/C(C)=C/CO)C(C)(C)CCC1 [Retinol, retinol] | – | – | – | 306.3±31.4 | 172.1±15.5 | – | 207.1±19.6 | 211.3±20.3 | 172.1 | 980 ± 80 µM | 211.3 | – | –
CC\C=C/C=C/C=C/C=C\CCCCCCCC(=O)O [cPnA, cis-parinaric acid] | – | – | 0.28 ± 0.02 µM | 608.4±57.8 | 2172.9 and 2172.9±214.6 | 0.64 ± 0.04 µM | 309.1±28.4 | 483.0 and 483.0±47.1 | – | – | – | – | –
CCCCCCCC/C=C\CCCCCCCC(=O)O [oleic acid] | – | – | – | – | – | – | – | – | – | – | – | competitively inhibited by oleic acid in a dose-dependent manner | significant replacement of retinol from the binding site
